Measurements from patent US9565857B2, “Antimicrobial solutions” (Board of Regents, The University of Texas System, priority 2010, dated 2017).

Key:
[1] = test system: Candida glabrata; test: modified Kuhn's biofilm model on silicone discs, lock solutions; assay type: cell-based; details: quantitative culture of biofilm discs after 2 hrs in solution at 37° C.
Method: (§1) Biofilm was grown on sterile silicone discs following a modified Kuhn's method. Briefly, silicone discs were placed into a 24 well tissue culture plate and incubated overnight at 37° C. The plasma was then removed and replaced with 1 mL of 5.5×10^5 CFU/mL inoculum of various organisms. The plates were then incubated for an additional 24 hrs at 37° C. Inoculum was then removed and discs were washed shaking for 30 minutes in 0.9% sterile saline. After washing the discs were placed in 1 mL of various antimicrobial solutions and incubated at 37° C. for 2 hrs. The discs were then removed and placed in 5 mL of 0.9% sterile saline and sonicated to disrupt any remaining biofilm. The resulting solution was then quantitatively cultured by making serial dilutions in 0.9% sterile saline and plating on agar plates, TSA+5% sheep blood for all bacterial organisms and Sabouraud Dextrose Agar for yeasts. A total of 3-9 discs were used for both organisms and respective labs solutions (see Tables 4-6).
(§2) Statistical methods: Wilcoxon rank sum tests were used for comparisons. All the analyses were performed using SAS version 9.1 (SAS Institute Inc., Cary, N.C.).

[2] = test system: MDR-Pseudomonas aeruginosa (PS 4689); test: as above; assay type: cell-based; details: quantitative culture of biofilm discs after 2 hrs in solution at 37° C.
Method: as §1, §2

[3] = test system: methicillin resistant Staphylococcus aureus (MRSA 4798); test: as above; assay type: cell-based; details: quantitative culture of biofilm discs after 2 hrs in solution at 37° C.
Method: as §1, §2

[4] = test system: MRSA; test: modified quantitative germicidal spray / quantitative carrier test, Example 1; assay type: cell-based, Staphylococcus aureus; details: criterion: complete kill on 9 of 10 carriers, positive carrier at least 99% reduction; one minute
Method: Sterile 50 mL centrifuge tubes, pre-filled with 20 mL of desired neutralizer.
Use 3″×1″ sterile glass containers. Place each carrier into a sterile Petri plastic dish.
Inoculate each carrier with 10 μL of bacterial or fungal suspension. If a carrier has a frosted end, inoculate the non-frosted end.
Using a sterile inoculating needle, spread the inoculum into an approximate 1 cm×1 cm square.
Dry the carriers in a 35° C. incubator for 30 min (lids cracked) or 40 min (lids closed).
Spray each carrier as specified by the test product. Ensure the inoculated area is thoroughly covered. Because of the time it takes to transfer the carrier into the neutralizer, a 30-second (or longer) interval time is recommended.
After the specified exposure time, transfer each carrier to a pre-filled centrifuge tube using forceps. Be sure to pick up the carrier by the non-inoculated end and place the inoculated end into the neutralizer.
Immediately close the cap and invert the tube several times (10 should be sufficient) so the neutralizer coats the entire carrier.
From this point on, follow the enumeration procedure as specified in the Quantitative Carrier Test SOP. […]
The aim of these sets of experiments is to compare the activity of these various solutions on a 10-set slid carriers of MRSA using standard EPA quantitate carrier test in 25-50% calf serum.

Structure (SMILES)	Mean [1]	Median (range) [1]	Mean [2]	Median (range) [2]	Mean [3]	Median (range) [3]	test of being highly effective against MRSA (passed/failed) [4]
OCC(O)CO [50% Glycerol alone, Glycerol]	6.2 × 10^3	1.1 × 10^3	1.0 × 10^6	1.0 × 10^6	1.0 × 10^7	1.0 × 10^6	–
N=C(NCCCCCCNC(=N)NC(=N)Nc1ccc(Cl)cc1)NC(=N)Nc1ccc(Cl)cc1 [0.06% CHG alone, 1,1′-hexamethylene-bis-[5-(4-chlorophenyl)-biguanide]]	–	–	–	–	–	–	failed the test
